The target of this test is T1, HIF-2α (Homo sapiens, UniProt Q99814).
T1 construct: host or cells: 786-O cells stably transduced with Cignal Lenti HIF Luc Reporter (only the reporter was introduced, not HIF-2α)
T1 sequence (Q99814 whole entry): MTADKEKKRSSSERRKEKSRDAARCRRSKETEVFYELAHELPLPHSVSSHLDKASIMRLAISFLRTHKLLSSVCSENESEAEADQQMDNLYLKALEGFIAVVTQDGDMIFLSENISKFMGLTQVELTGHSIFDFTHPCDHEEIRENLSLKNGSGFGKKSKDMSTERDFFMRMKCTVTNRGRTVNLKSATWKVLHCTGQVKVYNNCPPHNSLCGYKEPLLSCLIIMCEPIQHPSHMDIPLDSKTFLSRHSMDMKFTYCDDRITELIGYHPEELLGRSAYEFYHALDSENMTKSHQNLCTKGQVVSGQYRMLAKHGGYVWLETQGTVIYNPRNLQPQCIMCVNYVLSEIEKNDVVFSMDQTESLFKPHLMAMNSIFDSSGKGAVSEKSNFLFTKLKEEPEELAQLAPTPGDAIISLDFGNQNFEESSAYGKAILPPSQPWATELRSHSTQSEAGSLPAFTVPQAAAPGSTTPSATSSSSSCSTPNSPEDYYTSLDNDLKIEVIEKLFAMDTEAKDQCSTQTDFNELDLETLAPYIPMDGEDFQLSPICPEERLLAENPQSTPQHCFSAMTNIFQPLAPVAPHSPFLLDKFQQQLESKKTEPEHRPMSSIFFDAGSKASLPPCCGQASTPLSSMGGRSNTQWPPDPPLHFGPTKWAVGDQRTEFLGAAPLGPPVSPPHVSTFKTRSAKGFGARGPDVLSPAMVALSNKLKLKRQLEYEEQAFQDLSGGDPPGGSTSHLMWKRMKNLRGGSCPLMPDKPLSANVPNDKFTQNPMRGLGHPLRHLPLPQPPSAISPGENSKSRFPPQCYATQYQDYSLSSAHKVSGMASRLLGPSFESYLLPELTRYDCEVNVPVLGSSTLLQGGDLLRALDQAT
The experiment in a line: HIF-2α luciferase reporter assay in HIF-Luc-786-O cells. Type of test: cell-based. The settings on record: Table 3, 20 hours incubation. Here is the method:
Generation of HIF-2α Luciferase 786-O Cell Line:
Stable cell lines were generated by transducing 786-O cells (ATCC, CRL-1932) with Cignal Lenti HIF Luc Reporter lentivirus (CLS-007 L, Qiagen) according to the manufacturer's guidelines. In brief, 0.3×10^6 786-0 cells were transduced with lentivirus at a Multiplicity of Infection (MOI) of 25 for 24 hours. After transduction, cells were replenished with fresh RPMI 1640 Medium (Cat. No. 11875085, Thermo Fisher,) supplemented with 10% FBS (Cat. No. A3160502, Gibco), 2 mM GlutaMax (Cat. No. 35050-061, Invitrogen) and 100 units of penicillin and 100 μg of streptomycin/mL (Cat. No 15070063, Thermo Fisher) for another 24 hours. Antibiotic selection was performed in cell media containing 4 μg/mL of Puromycin. After 7 days of antibiotic selection, stable pools of surviving cells were expanded and used in a luciferase reporter assay.
HIF-2α Luciferase Reporter Assay:
On day one, 20 uL of HIF-Luc-786-0 cells in OptiMem (Cat. No. 31985088, Thermo Fisher) were seeded into each well of a 384 well white opaque plate (Corning 3570) and incubated at 37° C. and 5% CO2. Twenty microliters of 2× test compounds in OptiMem were added to cells after 4 hours of incubation. Final assay conditions comprised 20,000 cells per well in 1% DMSO with test compound concentrations ranging from 50 uM to 0 uM. After 20 hours incubation at 37° C. and 5% CO2, luciferase activity was determined using ONE-Glo Luciferase Assay Reagent (E6110, Promega) following the manufacture's recommended procedure. Briefly, 40 uL of ONE-Glo luciferase reagents were added to each well and luciferase signals were measured using an Envision 2102 Multilabel Reader. Percentage maximum activity in each test well was calculated based on DMSO (maximum activity) and no cell control wells (baseline activity). The IC50 values of the test compounds were determined from compound dose response curves fitted using a standard four parameter fit equation.
For orientation: A reporter such as luciferase makes a cellular process visible.
Broadly, the IC50 is the concentration that inhibits the measured activity by half. In the case of `N#Cc1cc(F)cc2c1[C@@H](c1ccc(C#N)c3c1CC(F)(F)[C@H]3O)CC[C@@H]2F` [Example 201, (5S,8R)-8-[(1S)-7-cyano-2,2-difluoro-1-hydroxy-1,3-dihydroinden-4-yl]-3,5-difluoro-5,6,7,8-tetrahydronaphthalene-1-carbonitrile], the IC50 is < 100 nM.

Take `Cn1cc(-c2c(F)cc([C@H]3CC[C@H](F)c4cc(F)cc(C#N)c43)c3c2[C@H](O)C(F)(F)C3)nn1` [Example 202, (5S,8R)-3,5-Difluoro-8-[(1S)-2,2,6-trifluoro-1-hydroxy-7-(1-methyltriazol-4-yl)-1,3-dihydroinden-4-yl]-5,6,7,8-tetrahydronaphthalene-1-carbonitrile]: the IC50 is < 100 nM.

For `Cc1nc(N)ccc1-c1c(F)cc([C@H]2CC[C@H](F)c3cc(F)cc(C#N)c32)c2c1[C@H](O)C(F)(F)C2` [Example 203, (5S,8R)-8-[(1S)-7-(6-amino-2-methylpyridin-3-yl)-2,2,6-trifluoro-1-hydroxy-1,3-dihydroinden-4-yl]-3,5-difluoro-5,6,7,8-tetrahydronaphthalene-1-carbonitrile], the IC50 is < 100 nM.

With `N#Cc1ccc(-c2c(F)cc([C@H]3CC[C@H](F)c4cc(F)cc(C#N)c43)c3c2[C@H](O)C(F)(F)C3)c(N)c1` [Example 204, (5S,8R)-8-[(1S)-7-(2-amino-4-cyanophenyl)-2,2,6-trifluoro-1-hydroxy-2,3-dihydro-1H-inden-4-yl]-3,5-difluoro-5,6,7,8-tetrahydronaphthalene-1-carbonitrile], the IC50 was < 100 nM.

Regarding `Cc1ncc(-c2c(F)cc([C@H]3CC[C@H](F)c4cc(F)cc(C#N)c43)c3c2[C@H](O)C(F)(F)C3)c(N)n1` [Example 205, (5S,8R)-8-[(1S)-7-(4-amino-2-methylpyrimidin-5-yl)-2,2,6-trifluoro-1-hydroxy-2,3-dihydro-1H-inden-4-yl]-3,5-difluoro-5,6,7,8-tetrahydronaphthalene-1-carbonitrile], the IC50 was < 100 nM.

As for `Cc1nc(C#N)ncc1-c1c(F)cc([C@H]2CC[C@H](F)c3cc(F)cc(C#N)c32)c2c1[C@H](O)C(F)(F)C2` [Example 206, 5-[(3S)-7-[(1R,4S)-8-cyano-4,6-difluoro-1,2,3,4-tetrahydronaphthalen-1-yl]-2,2,5-trifluoro-3-hydroxy-2,3-dihydro-1H-inden-4-yl]-4-methylpyrimidine-2-carbonitrile], the IC50 is < 100 nM.

For the molecule `N#Cc1cc(F)cc2c1[C@@H](c1cc(F)c(Cl)c3c1CC(F)(F)[C@H]3O)CC[C@@H]2F` [Example 207, (5S,8R)-8-[(1S)-7-chloro-2,2,6-trifluoro-1-hydroxy-1,3-dihydroinden-4-yl]-3,5-difluoro-5,6,7,8-tetrahydronaphthalene-1-carbonitrile], the IC50 was < 100 nM.

On to `Cn1cncc1-c1c(F)cc([C@H]2C[C@H](F)[C@H](F)c3cc(F)cc(C#N)c32)c2c1[C@H](O)C(F)(F)C2` [Example 208, (5R,6S)-3,5,6-trifluoro-8-[(1S)-2,2,6-trifluoro-1-hydroxy-7-(1-methyl-1H-imidazol-5-yl)-2,3-dihydro-1H-inden-4-yl]-5,6,7,8-tetrahydronaphthalene-1-carbonitrile], for which the IC50 was < 100 nM.

For `Cc1c(-c2c(F)cc([C@H]3C[C@H](F)[C@H](F)c4cc(F)cc(C#N)c43)c3c2[C@H](O)C(F)(F)C3)cnn1C` [Example 209, (5R,6S)-8-[(1S)-7-(1,5-dimethyl-1H-pyrazol-4-yl)-2,2,6-trifluoro-1-hydroxy-2,3-dihydro-1H-inden-4-yl]-3,5,6-trifluoro-5,6,7,8-tetrahydronaphthalene-1-carbonitrile], the half-inhibitory concentration (IC50) was < 100 nM.

Consider `Cn1nccc1-c1c(F)cc([C@H]2CC[C@H](F)c3cc(F)cc(C#N)c32)c2c1[C@H](O)[C@H](F)C2` [Example 210, (5S,8R)-8-[(1S,2R)-2,6-difluoro-1-hydroxy-7-(2-methylpyrazol-3-yl)-2,3-dihydro-1H-inden-4-yl]-3,5-difluoro-5,6,7,8-tetrahydronaphthalene-1-carbonitrile], for which the IC50 was < 100 nM.

As to `CS(=O)(=O)c1c(F)cc([C@H]2CC[C@H](F)c3cc(F)cc(C#N)c32)c2c1[C@H](O)[C@H](F)C2` [Example 211, (5S,8R)-8-[(1S,2R)-2,6-Difluoro-1-hydroxy-7-methylsulfonyl-2,3-dihydro-1H-inden-4-yl]-3,5-difluoro-5,6,7,8-tetrahydronaphthalene-1-carbonitrile], the half-inhibitory concentration (IC50) was < 100 nM.

As for `CS(=O)(=O)c1c(N)cc([C@H]2CC[C@H](F)c3cc(F)cc(C#N)c32)c2c1[C@H](O)[C@H](F)C2` [Example 212, (5S,8R)-8-[(1S,2R)-6-amino-2-fluoro-1-hydroxy-7-methylsulfonyl-2,3-dihydro-1H-inden-4-yl]-3,5-difluoro-5,6,7,8-tetrahydronaphthalene-1-carbonitrile], the 50% inhibitory concentration (IC50) is < 100 nM.

`CS(=O)(=O)c1c(C#N)cc([C@H]2CC[C@H](F)c3cc(F)cc(C#N)c32)c2c1[C@H](O)[C@H](F)C2` [Example 214, (5S,8R)-8-[(1S,2R)-6-Cyano-2-fluoro-1-hydroxy-7-methylsulfonyl-2,3-dihydro-1H-inden-4-yl]-3,5-difluoro-5,6,7,8-tetrahydronaphthalene-1-carbonitrile] came in with an IC50 of 100 to 1000 nM.

Take `Cc1nc(N)ccc1-c1ccc([C@H]2C[C@H](F)[C@H](F)c3cc(F)cc(C#N)c32)c2c1[C@H](O)C(F)(F)C2` [Example 216, (5R,6S,8R)-8-[(1S)-7-(6-amino-2-methylpyridin-3-yl)-2,2-difluoro-1-hydroxy-2,3-dihydro-1H-inden-4-yl]-3,5,6-trifluoro-5,6,7,8-tetrahydronaphthalene-1-carbonitrile]: the IC50 was < 100 nM.

Turning to `Cn1nccc1-c1ccc([C@H]2C[C@H](F)[C@H](F)c3cc(F)cc(C#N)c32)c2c1[C@H](O)C(F)(F)C2` [Example 217, (5R,6S,8R)-8-[(1S)-2,2-difluoro-1-hydroxy-7-(1-methyl-1H-pyrazol-5-yl)-2,3-dihydro-1H-inden-4-yl]-3,5,6-trifluoro-5,6,7,8-tetrahydronaphthalene-1-carbonitrile], the IC50 was < 100 nM.

`Cn1nncc1-c1ccc([C@H]2C[C@H](F)[C@H](F)c3cc(F)cc(C#N)c32)c2c1[C@H](O)C(F)(F)C2` [Example 218, (5R,6S,8R)-8-[(1S)-2,2-difluoro-1-hydroxy-7-(1-methyl-1H-1,2,3-triazol-5-yl)-2,3-dihydro-1H-inden-4-yl]-3,5,6-trifluoro-5,6,7,8-tetrahydronaphthalene-1-carbonitrile]: the IC50 is < 100 nM.

Turning to `N#Cc1cc(F)cc2c1[C@@H](c1ccc(Cl)c3c1CC(F)(F)[C@H]3O)C[C@H](F)[C@@H]2F` [Example 219, (5R,6S,8R)-8-[(1S)-7-chloro-2,2-difluoro-1-hydroxy-2,3-dihydro-1H-inden-4-yl]-3,5,6-trifluoro-5,6,7,8-tetrahydronaphthalene-1-carbonitrile], the IC50 is < 100 nM.

Turning to `Cc1nc(C#N)ncc1-c1ccc([C@H]2C[C@H](F)[C@H](F)c3cc(F)cc(C#N)c32)c2c1[C@H](O)C(F)(F)C2` [Example 220, 5-[(3S)-7-[(1R,3S,4R)-8-cyano-3,4,6-trifluoro-1,2,3,4-tetrahydronaphthalen-1-yl]-2,2-difluoro-3-hydroxy-2,3-dihydro-1H-inden-4-yl]-4-methylpyrimidine-2-carbonitrile], the concentration for half-maximal inhibition (IC50) was < 100 nM.

`Cc1ncc(-c2ccc([C@H]3C[C@H](F)[C@H](F)c4cc(F)cc(C#N)c43)c3c2[C@H](O)C(F)(F)C3)c(N)n1` [Example 221, (5R,6S,8R)-8-[(1S)-7-(4-amino-2-methylpyrimidin-5-yl)-2,2-difluoro-1-hydroxy-2,3-dihydro-1H-inden-4-yl]-3,5,6-trifluoro-5,6,7,8-tetrahydronaphthalene-1-carbonitrile]: the IC50 was < 100 nM.

For the molecule `N#Cc1cc(F)cc2c1[C@@H](c1ccc(Cl)c3c1C[C@@H](F)[C@H]3O)CC[C@@H]2F` [Example 222, (5S,8R)-8-[(1S,2R)-7-chloro-2-fluoro-1-hydroxy-2,3-dihydro-1H-inden-4-yl]-3,5-difluoro-5,6,7,8-tetrahydronaphthalene-1-carbonitrile], the IC50 was < 100 nM.

Turning to `N#Cc1cc(F)cc2c1[C@@H](c1ccc(C(=O)O)c3c1CC(F)(F)[C@H]3O)CC[C@@H]2F` [Example 223, (3S)-7-[(1R,4S)-8-cyano-4,6-difluoro-1,2,3,4-tetrahydronaphthalen-1-yl]-2,2-difluoro-3-hydroxy-1,3-dihydroindene-4-carboxylic acid], the IC50 lay in the range of 100 to 1000 nM.

The molecule `CN(C)C(=O)c1ccc([C@H]2CC[C@H](F)c3cc(F)cc(C#N)c32)c2c1[C@H](O)C(F)(F)C2` [Example 224, (3S)-7-[(1R,4S)-8-cyano-4,6-difluoro-1,2,3,4-tetrahydronaphthalen-1-yl]-2,2-difluoro-3-hydroxy-N,N-dimethyl-1,3-dihydroindene-4-carboxamide] displayed an IC50 of 100 to 1000 nM.

The values above are taken from patent US11787762B2, “Tetralin and tetrahydroquinoline compounds as inhibitors of HIF-2alpha” (ARCUS BIOSCIENCES, INC., priority 2020, dated 2023).
